Where a name gives a salt, the structure may show the parent alone.
How the values were obtained:
[1] = tested on: rats; experiment: Rat thermal paw flick anesthesia study; type: in vivo; details: intraplantar injection 100 μL
Method: Liposphere containing bupivacaine (3%), tristearin (6%), and DMPC (0.75%) was tested for its local anesthetic activity in rats. Its activity was compared with that of bupivacaine HCL (3%) solution. The liposphere formulation was prepared as described in Example 1. Adult rats were given an intraplantar injection of 100 μL of either liposphere formulation or bupivacaine HCl solution. Animals were then individually placed into a Hargreaves “hotbox,” in which a beam of light, as a heat source, was focused on the plantar surface of the injected paw at various intervals after treatment. The latency for the rat to withdraw its paw was recorded, up to a maximum of 20 seconds. The earliest time point examined in these studies was 30 min. The latest time point was 120 min for animals treated with bupivacaine HCl solution (by which time latencies had returned to predrug baseline levels), and 1440 min for animals treated with liposphere formulation.

[2] = tested on: guinea pigs; experiment: Guinea pig wheal anesthesia study (pin-prick); type: in vivo; details: subcutaneous 300 μL; 3% liposphere (p<0.043) or 0.5% bupivacaine HCl solution (p<0.008); 1-tailed test; FIG. 3
Method: Liposphere formulation containing bupivacaine (3%), tristearin (6%), and DMPC (0.75%) and the liposphere vehicle containing tristearin (6%) and DMPC (0.75%) were evaluated for their anesthesia activities in guinea pigs. The liposphere formulation and vehicle were prepared as described in Example 1. In addition, a solution of bupivacaine HCl (0.5%) and its vehicle (normal saline solution) were evaluated for comparison. In this example, adult guinea pigs were randomly assigned to one of two groups, with each group receiving two subcutaneous injections: one of vehicle and one of the test articles. Half of the animals in each group were given the vehicle on the left side and the test article on the right side. The other half were given the test article on the left side and the vehicle on the right. Injection volume was 300 μL. There were two injections given to each animal. Both groups consisted of eight animals, four of each group received an injection of the vehicle on the left side of the spine, and the remaining four animals received an injection of the vehicle on the right side. […] The “anesthetic action” (the ability of local anesthetics to block the skin reflex in guinea pigs) was determined using the “pin-prick” method. […] The ability of the test compound to block the twitch responses of the guinea pig to six probings with a carefully calibrated needle algesimeter was evaluated. […]

CCCCN1CCCCC1C(=O)Nc1c(C)cccc1C (stereo not drawn) [bupivacaine HCl solution, bupivacaine HCl]
duration of anesthesia post injection ([1]; 3% bupivacaine liposphere or 3% bupivacaine HCl solution, paw withdrawal latency, FIG. 2): up to 60 min
time by which latencies had returned to predrug baseline levels ([1]; bupivacaine HCl 3% solution): ≤ 120 min
duration of statistically significant anesthesia compared to vehicle [2]: up to 0.75 hours

From patent publication US20040052836A1, “Pharmaceutical compositions containing at least one stable liposphere having an improved shelf life” (priority 2002, published 2004)
